According to PubChem BioAssay AID308 (DTP/NCI, 2004):
Where “and” joins values, the source holds several entries; their conditions need not be identical. Identical values can stand only once. Toxic doses and inconclusive results are not listed.

Test system: BDF1 mice, L1210 6-MP/6-TG resistant leukemia ip, survival T/C
Test: NCI In Vivo Anticancer Drug Screen. Data for tumor model L1210 Leukemia resistant to 6-MP and 6-Thioguanine; NSC 755, NSC 752 (intraperitoneal) in B6D2F1 (BDF1) mice
Conditions: endpoint: mean survival time, higher = longer survival
Method: The antitumor activity of compounds was measured in mice bearing transplantable tumors. Survival or tumor size were measured and the results are expressed as the measurement made in the treated group (T) divided by the measurement made in the vehicle treated control group (C). The tumor model used in this assay is L1210 Leukemia resistant to 6-MP and 6-Thioguanine; NSC 755, NSC 752 (intraperitoneal) in B6D2F1 (BDF1) mice

With `CSc1ncnc2c1ncn2C1OC(CO)C(O)C1O` (configuration not stated) the T/C (dose: 2.0 mg/kg/injection, schedule: Q01DX Z (ip), vehicle: saline) was 117 % of control, the T/C (dose: 3.0 mg/kg/injection, schedule: Q01DX015 (ip), vehicle: saline) was 119 % of control and 121 % of control and the T/C (dose: 4.0 mg/kg/injection, schedule: Q01DX Z (oral), vehicle: saline) was 100 % of control. For the same molecule, the T/C (dose: 7.0 mg/kg/injection, schedule: Q01DX015 (ip), vehicle: saline) was 158 % of control, the T/C (dose: 7.0 mg/kg/injection, schedule: Q01DX Z (ip), vehicle: saline) was 151 % of control and the T/C (dose: 8.0 mg/kg/injection, schedule: Q01DX Z (ip), vehicle: saline) was 168 % of control. For the same molecule, the T/C (dose: 8.0 mg/kg/injection, schedule: Q01DX Z (oral), vehicle: saline) was 107 % of control, the T/C (dose: 10.0 mg/kg/injection, schedule: Q## X032 (ip), vehicle: saline) was 114 % of control and the T/C (dose: 12.0 mg/kg/injection, schedule: Q01DX001 (ip), vehicle: alkali diluted with saline) was 102 % of control and 103 % of control. The T/C (dose: 12.0 mg/kg/injection, schedule: Q01DX Z (ip), vehicle: saline) was 175 % of control, the T/C (dose: 12.0 mg/kg/injection, schedule: Q01DX Z (oral), vehicle: saline) was 100 % of control and the T/C (dose: 13.0 mg/kg/injection, schedule: Q02DX008 (ip), vehicle: saline) was 122 % of control. The T/C (dose: 13.0 mg/kg/injection, schedule: Q## X004 (ip), vehicle: saline) was 108 % of control, the T/C (dose: 16.0 mg/kg/injection, schedule: Q01DX015 (ip), vehicle: saline) was 152 % of control and 166 % of control and the T/C (dose: 16.0 mg/kg/injection, schedule: Q01DX Z (ip), vehicle: clinical formulation) was 123 % of control. For the same molecule, the T/C (dose: 16.0 mg/kg/injection, schedule: Q01DX Z (ip), vehicle: saline) was 191 % of control, the T/C (dose: 16.0 mg/kg/injection, schedule: Q01DX Z (oral), vehicle: saline) was 111 % of control and the T/C (dose: 18.0 mg/kg/injection, schedule: Q01DX001 (ip), vehicle: alkali diluted with saline) was 116 % of control and 103 % of control. For the same molecule, the T/C (dose: 18.0 mg/kg/injection, schedule: Q01DX001 (ip), vehicle: saline) was 112 % of control and 98 % of control, the T/C (dose: 21.0 mg/kg/injection, schedule: Q01DX015 (ip), vehicle: saline) was 159 % of control and the T/C (dose: 24.0 mg/kg/injection, schedule: Q01DX015 (ip), vehicle: saline) was 163 % of control. The T/C (dose: 24.0 mg/kg/injection, schedule: Q01DX Z (ip), vehicle: saline) was 119 % of control, the T/C (dose: 24.0 mg/kg/injection, schedule: Q01DX Z (oral), vehicle: saline) was 113 % of control and 120 % of control and the T/C (dose: 24.0 mg/kg/injection, schedule: Q## X032 (ip), vehicle: saline) was 150 % of control. The T/C (dose: 26.0 mg/kg/injection, schedule: Q01DX001 (ip), vehicle: alkali diluted with saline) was 118 % of control and 111 % of control, the T/C (dose: 26.0 mg/kg/injection, schedule: Q01DX001 (ip), vehicle: saline) was 104 % of control and the T/C (dose: 27.0 mg/kg/injection, schedule: Q01DX001 (ip), vehicle: saline) was 114 % of control and 108 % of control. The T/C (dose: 32.0 mg/kg/injection, schedule: Q01DX Z (ip), vehicle: saline) was 121 % of control, the T/C (dose: 32.0 mg/kg/injection, schedule: Q01DX Z (oral), vehicle: saline) was 120 % of control and 106 % of control and the T/C (dose: 32.0 mg/kg/injection, schedule: Q## X032 (ip), vehicle: saline) was 152 % of control and 158 % of control. The T/C (dose: 36.0 mg/kg/injection, schedule: Q01DX015 (ip), vehicle: saline) was 114 % of control, the T/C (dose: 37.0 mg/kg/injection, schedule: Q01DX Z (ip), vehicle: saline) was 95 % of control and the T/C (dose: 40.0 mg/kg/injection, schedule: Q01DX001 (ip), vehicle: alkali diluted with saline) was 119 % of control and 106 % of control. The T/C (dose: 40.0 mg/kg/injection, schedule: Q01DX001 (ip), vehicle: saline) was 117 % of control and 98 % of control and 108 % of control, the T/C (dose: 44.0 mg/kg/injection, schedule: Q02DX008 (ip), vehicle: saline) was 158 % of control and the T/C (dose: 45.0 mg/kg/injection, schedule: Q01DX015 (ip), vehicle: saline) was 92 % of control and 94 % of control. For the same molecule, the T/C (dose: 45.0 mg/kg/injection, schedule: Q## X004 (ip), vehicle: saline) was 157 % of control, the T/C (dose: 48.0 mg/kg/injection, schedule: Q01DX Z (ip), vehicle: saline) was 96 % of control and the T/C (dose: 48.0 mg/kg/injection, schedule: Q01DX Z (oral), vehicle: saline) was 95 % of control and 103 % of control. The T/C (dose: 48.0 mg/kg/injection, schedule: Q## X032 (ip), vehicle: saline) was 164 % of control and 171 % of control, the T/C (dose: 50.0 mg/kg/injection, schedule: Q01DX Z (ip), vehicle: saline) was 90 % of control and the T/C (dose: 54.0 mg/kg/injection, schedule: Q01DX001 (ip), vehicle: saline) was 109 % of control. For the same molecule, the T/C (dose: 60.0 mg/kg/injection, schedule: Q01DX001 (ip), vehicle: saline) was 119 % of control and 107 % of control, the T/C (dose: 61.0 mg/kg/injection, schedule: Q01DX001 (ip), vehicle: alkali diluted with saline) was 113 % of control and the T/C (dose: 61.0 mg/kg/injection, schedule: Q01DX001 (ip), vehicle: saline) was 113 % of control. For the same molecule, the T/C (dose: 67.0 mg/kg/injection, schedule: Q## X004 (ip), vehicle: saline) was 162 % of control, the T/C (dose: 72.0 mg/kg/injection, schedule: Q## X032 (ip), vehicle: saline) was 165 % of control and 166 % of control and the T/C (dose: 81.0 mg/kg/injection, schedule: Q01DX001 (ip), vehicle: saline) was 124 % of control. For the same molecule, the T/C (dose: 90.0 mg/kg/injection, schedule: Q01DX001 (ip), vehicle: saline) was 109 % of control, the T/C (dose: 92.0 mg/kg/injection, schedule: Q01DX001 (ip), vehicle: alkali diluted with saline) was 123 % of control and 111 % of control and the T/C (dose: 100.0 mg/kg/injection, schedule: Q02DX008 (ip), vehicle: saline) was 99 % of control. For the same molecule, the T/C (dose: 100.0 mg/kg/injection, schedule: Q## X004 (ip), vehicle: saline) was 170 % of control, the T/C (dose: 108.0 mg/kg/injection, schedule: Q## X032 (ip), vehicle: saline) was 116 % of control and 98 % of control and the T/C (dose: 138.0 mg/kg/injection, schedule: Q01DX001 (ip), vehicle: alkali diluted with saline) was 116 % of control. For the same molecule, the T/C (dose: 138.0 mg/kg/injection, schedule: Q01DX001 (ip), vehicle: saline) was 118 % of control, the T/C (dose: 150.0 mg/kg/injection, schedule: Q## X004 (ip), vehicle: saline) was 164 % of control and the T/C (dose: 207.0 mg/kg/injection, schedule: Q01DX001 (ip), vehicle: alkali diluted with saline) was 119 % of control and 124 % of control. For the same molecule, the T/C (dose: 300.0 mg/kg/injection, schedule: Q01DX001 (ip), vehicle: saline) was 111 % of control.
For `O=C(OCC1OC(n2cnc3c(=S)nc[nH]c32)C(OC(=O)c2ccc([N+](=O)[O-])cc2)C1OC(=O)c1ccc([N+](=O)[O-])cc1)c1ccc([N+](=O)[O-])cc1` (configuration not stated), the T/C (dose: 6.25 mg/kg/injection, schedule: Q01DX015 (ip), vehicle: other) was 94 % of control, the T/C (dose: 12.5 mg/kg/injection, schedule: Q01DX015 (ip), vehicle: other) was 105 % of control and the T/C (dose: 25.0 mg/kg/injection, schedule: Q01DX015 (ip), vehicle: other) was 88 % of control. For the same molecule, the T/C (dose: 50.0 mg/kg/injection, schedule: Q01DX Z (ip), vehicle: other) was 92 % of control and the T/C (dose: 400.0 mg/kg/injection, schedule: Q01DX Z (ip), vehicle: other) was 86 % of control.
In the case of `C=CCSc1ncnc2c1ncn2C1OC(CO)C(O)C1O` (configuration not stated), the T/C (dose: 5.0 mg/kg/injection, schedule: Q01DX015 (ip), vehicle: saline) is reported as 112 % of control, the T/C (dose: 10.0 mg/kg/injection, schedule: Q01DX015 (ip), vehicle: saline) is reported as 102 % of control and the T/C (dose: 20.0 mg/kg/injection, schedule: Q01DX015 (ip), vehicle: saline) is reported as 100 % of control. The T/C (dose: 40.0 mg/kg/injection, schedule: Q01DX015 (ip), vehicle: saline) was 100 % of control, the T/C (dose: 50.0 mg/kg/injection, schedule: Q01DX015 (ip), vehicle: saline) was 105 % of control and the T/C (dose: 100.0 mg/kg/injection, schedule: Q01DX015 (ip), vehicle: saline) was 94 % of control. For the same molecule, the T/C (dose: 200.0 mg/kg/injection, schedule: Q01DX015 (ip), vehicle: saline) was 90 % of control.
For `Cn1cnc2c(SCc3ccccc3)ncnc21`, the T/C (dose: 12.5 mg/kg/injection, schedule: Q01DX Z (ip), vehicle: carboxymethylcellulose (CMC)) was 100 % of control, the T/C (dose: 25.0 mg/kg/injection, schedule: Q01DX Z (ip), vehicle: carboxymethylcellulose (CMC)) was 107 % of control and the T/C (dose: 50.0 mg/kg/injection, schedule: Q01DX Z (ip), vehicle: carboxymethylcellulose (CMC)) was 100 % of control. For the same molecule, the T/C (dose: 93.0 mg/kg/injection, schedule: Q01DX Z (ip), vehicle: carboxymethylcellulose (CMC)) was 87 % of control, the T/C (dose: 100.0 mg/kg/injection, schedule: Q01DX Z (ip), vehicle: carboxymethylcellulose (CMC)) was 102 % of control and the T/C (dose: 187.0 mg/kg/injection, schedule: Q01DX Z (ip), vehicle: carboxymethylcellulose (CMC)) was 98 % of control. For the same molecule, the T/C (dose: 250.0 mg/kg/injection, schedule: Q01DX Z (ip), vehicle: carboxymethylcellulose (CMC)) was 92 % of control.
